{"source": "paper PMC3846386", "about": "(Journal of medicinal chemistry, 2013)", "key": {"[1]": {"target": "T1, GFP-FLMBT (GFP fusion of full-length L3MBTL3) (Homo sapiens, UniProt Q96JM7)", "T1 sequence (Q96JM7 1-780)": "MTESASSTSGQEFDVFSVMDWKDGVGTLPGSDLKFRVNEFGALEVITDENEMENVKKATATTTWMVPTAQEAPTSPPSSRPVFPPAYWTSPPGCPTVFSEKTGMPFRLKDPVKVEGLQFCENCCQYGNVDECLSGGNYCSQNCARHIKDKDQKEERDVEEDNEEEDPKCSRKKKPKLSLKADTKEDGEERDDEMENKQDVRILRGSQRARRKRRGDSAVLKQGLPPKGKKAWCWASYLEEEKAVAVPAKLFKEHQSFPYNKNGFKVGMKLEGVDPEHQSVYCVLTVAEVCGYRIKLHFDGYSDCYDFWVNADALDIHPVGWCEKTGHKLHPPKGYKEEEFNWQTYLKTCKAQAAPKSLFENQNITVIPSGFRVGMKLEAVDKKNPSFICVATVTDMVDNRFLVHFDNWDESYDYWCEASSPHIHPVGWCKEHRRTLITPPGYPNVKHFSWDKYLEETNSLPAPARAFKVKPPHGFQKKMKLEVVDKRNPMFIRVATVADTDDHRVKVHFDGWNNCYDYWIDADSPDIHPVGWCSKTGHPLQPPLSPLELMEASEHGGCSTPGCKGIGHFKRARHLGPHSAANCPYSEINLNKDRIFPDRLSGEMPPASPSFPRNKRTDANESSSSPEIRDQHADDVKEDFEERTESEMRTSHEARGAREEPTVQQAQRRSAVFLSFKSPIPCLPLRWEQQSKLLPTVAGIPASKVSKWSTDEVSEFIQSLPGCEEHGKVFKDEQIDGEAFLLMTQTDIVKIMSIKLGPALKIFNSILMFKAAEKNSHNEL", "assay": "Displacement of mero76-1 from GFP-FLMBT in HEK293 cells", "type": "cell-based"}, "[2]": {"target": "T2, endogenous L3MBTL3 (Homo sapiens, UniProt Q96JM7)", "T2 sequence (Q96JM7 1-780)": "T1 sequence (Q96JM7 1-780)", "assay": "Biotin-1 pull-down", "type": "binding", "settings": "G-401 cell lysates, Western analysis"}, "[3]": {"tested_on": "GFP fusion protein containing the three MBT domains of L3MBTL3 (GFP-3MBT)", "settings": "read-out: EC50, effect on subnuclear localization of GFP-3MBT; cells; cited from earlier work"}, "[4]": {"assay": "CellTiter-Glo luminescent cell viability assay", "type": "cell-based"}, "[5]": {"target": "T3, L3MBTL1 (Homo sapiens, UniProt Q9Y468)", "T3 sequence (Q9Y468 1-772 isoform Q9Y468-1)": "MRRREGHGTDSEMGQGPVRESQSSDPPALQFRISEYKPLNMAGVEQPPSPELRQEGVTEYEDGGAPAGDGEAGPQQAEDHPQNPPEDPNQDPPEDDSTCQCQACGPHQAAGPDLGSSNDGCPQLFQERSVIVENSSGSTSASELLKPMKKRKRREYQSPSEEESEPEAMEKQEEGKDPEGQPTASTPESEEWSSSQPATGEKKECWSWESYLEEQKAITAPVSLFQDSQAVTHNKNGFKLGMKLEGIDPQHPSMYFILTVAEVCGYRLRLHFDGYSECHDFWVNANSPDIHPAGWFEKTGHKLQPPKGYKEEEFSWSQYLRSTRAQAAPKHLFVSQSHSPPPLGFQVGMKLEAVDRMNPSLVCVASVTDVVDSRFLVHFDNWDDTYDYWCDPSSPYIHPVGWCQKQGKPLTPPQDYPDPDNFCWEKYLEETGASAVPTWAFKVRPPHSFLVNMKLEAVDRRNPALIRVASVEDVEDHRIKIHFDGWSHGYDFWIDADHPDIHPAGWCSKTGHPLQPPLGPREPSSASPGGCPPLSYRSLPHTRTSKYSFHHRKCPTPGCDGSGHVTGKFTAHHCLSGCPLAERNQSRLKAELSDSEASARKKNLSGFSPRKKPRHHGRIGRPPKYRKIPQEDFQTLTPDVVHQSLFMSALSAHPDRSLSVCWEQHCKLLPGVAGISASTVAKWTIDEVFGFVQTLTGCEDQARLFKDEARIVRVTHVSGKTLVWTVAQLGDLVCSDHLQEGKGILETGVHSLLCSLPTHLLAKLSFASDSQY", "assay": "Isothermal titration calorimetry", "type": "binding", "settings": "in words"}, "[6]": {"target": "T4, L3MBTL3 (Homo sapiens, UniProt Q96JM7)", "T4 sequence (Q96JM7 1-780)": "T1 sequence (Q96JM7 1-780)", "assay": "AlphaScreen competition assay", "settings": "in words"}, "[7]": {"tested_on": "L3MBTL1 L361F"}}, "note": "pEC50: −log10 of the molar value."}
{"compound": "O=C(c1ccc(C(=O)N2CCC(N3CCCC3)CC2)c(Nc2ccccc2)c1)N1CCC(N2CCCC2)CC1", "note": "[Compound 1]", "values": [{"measurement": "displacement of mero76-1 from GFP-L3MBTL3", "setting": "[1]; 1 equivalent relative to mero76-1", "value": "displace mero76-1 from GFP-L3MBTL3"}, {"measurement": "displacement of mero76-1 from GFP-FLMBT", "setting": "[1]; 1 or 5 equivalents relative to mero76-1 (both concentrations)", "value": "largely displaces mero76-1 from GFP-FLMBT"}, {"measurement": "competition with biotin-1 for binding to endogenous L3MBTL3", "setting": "[2]", "value": "competed off with soluble 1"}, {"measurement": "pEC50", "setting": "[3]", "value": "~6.30"}, {"measurement": "cytotoxicity, no observable level up to", "setting": "[4]", "value": "> 100", "unit": "µM"}]}
{"compound": "CCN1Cc2ccc(NC(=O)c3ccc(C(=O)N4CCC(C5CCCN5)CC4)cc3)cc2C1", "note": "(centres unmarked) [Compound 2]", "values": [{"measurement": "cytotoxicity, no observable level up to", "setting": "[4]", "value": "> 100", "unit": "µM"}]}
{"compound": "O=C(c1ccc(C(=O)N2CCC(N3CCCC3)CC2)cc1)N1CCC(N2CCCC2)CC1", "note": "[Compound 5]", "values": [{"measurement": "cytotoxicity, no observable level up to", "setting": "[4]", "value": "> 100", "unit": "µM"}]}
{"compound": "O=C(c1ccc(C(=O)N2CCC(N3CCCCC3)CC2)cc1)N1CCC(N2CCCCC2)CC1", "note": "[Compound 37]", "values": [{"measurement": "competition with biotin-1 for binding to endogenous L3MBTL3", "setting": "[2]", "value": "failed to compete for binding to endogenous L3MBTL3"}]}
{"compound": "O=C(c1ccc(C(=O)N2CCC(N3CCCC3)CC2)c(NCc2ccccc2)c1)N1CCC(N2CCCC2)CC1", "note": "[Compound 49]", "values": [{"measurement": "affinity for L3MBTL1 by follow-up ITC", "setting": "[5]", "value": "micromolar affinity"}]}
{"compound": "O=C(c1cccc(Br)c1)N1CCC(N2CCCC2)CC1", "note": "[Compound 57]", "values": [{"measurement": "binding to L3MBTL3 versus L3MBTL1", "setting": "[6]", "value": "equally well"}, {"measurement": "change in affinity for L3MBTL1 L361F relative to wildtype L3MBTL1 by ITC", "setting": "[7]", "value": "≤ 2", "unit": "fold"}]}
